Data from patent US11464771B2, “Bromodomain and extra-terminal protein inhibitor combination therapy” (CELGENE QUANTICEL RESEARCH, INC., priority 2016, dated 2022).

Legend:
[1] = non-leukemic hematologic malignancies; cited from earlier work
[2] = system: PA0165 pancreatic xenograft; assay: Pancreatic xenograft PA0165, Compound A and Romidepsin; type: in vivo, NSG mice
Description: 3/4 is 3 days on and 4 days off; Q4D is once every 4 days; Q7D is once every 7 days; —— Control; - - - - Compound A 25 mg/kg, 3/4; - —— - —— Romidepsin 1.5 mg/kg Q4D×3; —— —— Compound A 25 mg/kg. 3/4 combined with Romidepsin 1.5 mg/kg Q7D; - - - Compound A 25 mg/kg, 3/4 combined with Romidepsin 0.75 mg/kg Q7D. Tumor volumes were plotted as mean±standard error of the mean (SEM).
3/4 is 3 days on and 4 days off; Q4D is once every 4 days. —— Control; - - - - Compound A at 25 mg/kg, 3/4; - —— - —— Romidepsin 1.5 mg/kg Q4D×3; —— —— Compound A 25 mg/kg, 3/4 combined with Romidepsin 1.5 mg/kg Q7D; - - - Compound A 25 mg/kg, 3/4 combined with Romidepsin 0.75 mg/kg Q7D.
Cohorts of 4-6 wk-old NSG mice bearing PA0165 were treated with Romidepsin at 1.5 mg/kg intravenous (IV)×3 Q4D; Compound A 25 mg/kg orally QD 3 days on then 4 days off; or with a combination of Compound A 25 mg/kg orally QD 3 days on then 4 days off and Romidepsin at 1.5 or 0.75 mg/kg IV Q7D. The treatment lasted 21 days.

locally advanced BCC = conditions: cited from earlier work
basal cell carcinoma = conditions: BCC; cited from earlier work

For Cc1sc2c(c1C)C(c1ccc(Cl)cc1)=N[C@@H](CC(=O)Nc1ccc(O)cc1)c1nnc(C)n1-2 [OTX015], which “patients with Grade 3 hyperglycemia” value [1] is on record?
Its value is 1 patient.

Which results are given for C/C=C1\NC(=O)[C@H]2CSSCC/C=C/[C@H](CC(=O)N[C@H](C(C)C)C(=O)N2)OC(=O)[C@H](C(C)C)NC1=O [Romidepsin, (1S,4S,7Z,10S,16E,21R)-7-ethylidene4,21-diisopropyl-2-oxa-12,13-dithia-5,8,20,23-tetrazabicyclo[8.7.6]tricos-16-ene-3,6,9,19,22pentone, reference compound]?
TGI ([2]; Romidepsin 1.5 mg/kg IV ×3 Q4D alone, 21 days): 45%; survival rate ([2]; day 30, Romidepsin only group): about 10%

With Cc1c(C(=O)Nc2ccc(N3C[C@@H](C)O[C@@H](C)C3)nc2)cccc1-c1ccc(OC(F)(F)F)cc1 [sonidegib] as the compound, how does the “investigator-assessed responses lasting at least six months” value (locally advanced BCC) read?
Its value is 60%.

For CS(=O)(=O)c1ccc(C(=O)Nc2ccc(Cl)c(-c3ccccn3)c2)c(Cl)c1 [vismodegib], which “median duration of response” value (basal cell carcinoma) is on record?
Its value is 7.6 months.
